Test results from patent publication US20060211575A1, “CONTROL FOR PLANT AND PLANT PRODUCT PATHOGENS” (W. NEUDORFF GMBH KG, priority 2005, published 2006).

Key:
Type in all cases: in vivo
[1] = system: rust (Cronartium ribicola); assay: Field test of betaines to control rust on black currants; conditions: 0.10% ai, black currant, resprayed every 7 to 10 days
Description: The purpose of this test was to evaluate 6 betaines for controlling rust (Cronartium ribicola) on black currant. Following formation of compositions of Coco betaine, C16 betaine, C18:1 betaine, Coco amidopropyl betaine, C18:1 amidopropyl betaine, and Coco sulfo betaine having varying betaine concentrations (using the commercially available forms of the betaines as discussed herein and a water solvent), and a copper octanoate standard (formed from a commercially available form entitled “Soap Shield” from Gardens Alive, Ind., USA), the compositions/solution were sprayed to run off onto eight-year-old black currants. Every treatment had nine plants, and the plants were resprayed every 7 to 10 days.

[2] = system: powdery mildew (Sphaerotheca fuliginea); assay: Greenhouse test of betaines for controlling powdery mildew on dandelion
Experimental: The purpose of this test was to evaluate the control of powdery mildew (Sphaerotheca fuliginea) on dandelion (Taraxacum officinale). Compositions of C12 betaine, Coco betaine, C16 betaine, C18:1 betaine, Coco amidopropyl betaine, C18:1 amidopropyl betaine, and Coco sulfo betaine were formed using the commercially available forms of the betaines as disclosed herein. Additionally, a sulfur standard was prepared using a commercially available form of sulfur (Red Ball EM-53) from International Chem. Inc., USA. For each treatment, twelve 20 cm diameter dandelions were used, and at the start of the test, all of the leaves were trimmed off of the plants. The test evaluated disease development on fully formed leaves. Each composition was sprayed to run off the plants, and resprayed 3 times every 7 days. The plants were also reinoculated by placing diseased dandelions amongst the test plants.

[3] = system: rose blackspot (Diplocarpon rosae); assay: Field test of betaines to control blackspot on Altissimo roses; conditions: 0.2%
Description: The purpose of this test was to evaluate various betaines for controlling rose blackspot (Diplocarpon rosae) on Altissimo roses under field conditions. Following formation of compositions of cetyl betaine, cocobetaine, and coco amidopropyl betaine using the commercially available forms of the betaines as disclosed herein as well as formation of a standard 0.2% sulfur solution, the compositions/solution were sprayed to run off onto mature Altissimo rose plants. Nine plants were used in each treatment, and the plants were resprayed every 7 to 10 days for over a 100 day period.
Table 1, below, illustrates the results obtained from treatments of cetyl betaine at various concentrations ranging from about 0.020% ai to 0.100% ai, as well as cocobetaine at a 0.05% ai concentration and coco amiodopropyl betaine at a 0.10% ai concentration.

Row | Compound | Rust Sori Per 9 Plants [1] | Leaf Area Colonized by Powdery Mildew (%) ([2]; 0.1% ai) | Leaflets with Blackspot (%) ([3]; 75 DAT) | Leaflets with Blackspot (%) ([3]; 102 DAT) | Leaf Area Colonized by Powdery Mildew (%) ([2]; 0.2% ai)
1 | CCCCCCCC/C=C\CCCCCCCC(=O)NCCC[N+](C)(C)CC(=O)[O-] [C18:1 amidopropyl betaine, oleamidopropyl betaine] | 2121 | 0.9% | – | – | –
2 | CCCCCCCC/C=C\CCCCCCCC[N+](C)(C)CC(=O)[O-] [C18:1 betaine, oleyl betaine] | 550 | 2.3% | – | – | –
3 | S1SSSSSSS1 [Sulfur] | – | – | 0.8% | 1.5% | 0.0%
4 | Copper octanoate [reference compound] | 135 | – | – | – | –
